Results published in ChEMBL document CHEMBL1201862, “PubChem BioAssay data set” (2004).
Active and inactive are the calls of the source.

Columns and labels:
HEK293 [1] = assay: viability loss in HEK293T cells – cell-based, ATP luminescence, cherry-pick samples, cytotoxicity control, dose response (AID 687005); type: functional; details: Homo sapiens;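 note: cells exposed to compound for 48 hours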
[2] = HEK293 Cytotoxicity Assay Measured in Cell-Based System Using Plate Reader - 7071-01_Inhibitor_Dose_CherryPick_Activity_Set2.; type: functional
BJ [3] = assay: BJ-TERT fibroblast viability loss – cell-based, RAS-independent, luminescence, dose response (AID 1933); type: functional; details: Homo sapiens
BJ [4] = assay: cells; type: functional, cell-based; details: Homo sapiens
BJ [5] = assay: BJ-TERT-LT-ST fibroblast viability loss – cell-based, RAS-independent, luminescence, dose response (AID 1935); type: functional; details: Homo sapiens;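 note: BJ fibroblasts immortalized with TERT plus LT and ST oncogenes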
[6] = DRD fibroblast viability loss – cell-based, non-viral oncogenic, luminescence, dose response (AID 1934); type: functional; details: Homo sapiens
[7] = Luminescence Cell-Based Dose Retest to Confirm Inhibitors of Cancer Stem Cells. [Related pubchem assays (depositor defined):AID2717, AID2721]; type: functional; details: Homo sapiens
HEK293 [8] = assay: EBV LMP1 TES2 canonical NF-kB signalling blockers – cell-based, HEK293, luciferase, cherry-pick, dose response (AID 588343); type: functional; details: Homo sapiens
BJ [9] = assay: growth inhibition of engineered Ras-driven BJ cells – cell-based, alamar blue fluorescence, cherrypicked samples, dose response (AID 2631); type: functional; details: Homo sapiens;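 note: confirmatory dose-response assay in RAS-dependent BJ fibroblasts engineered with TERT, LT and ST, with cytotoxicity read by fluorescence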
[10] = reduction of Shn3 3'UTR-driven luciferase in osteoblasts – cell-based, Clone20 osteoblasts, firefly luciferase, cherry-picked, dose response (AID 624132); type: functional;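 note: firefly luciferase luminescence from reporter carrying the Shn3 3'UTR in osteoblasts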
[11] = loss of viability in HepG2 cells – cell-based, CellTiter-Glo, cherry-picked, cytotoxicity control for Shn3 inhibitor project, dose response (AID 624134); type: functional
[12] = non-specific 3'UTR reporter inhibition in Clone20-Shn3RL – cell-based, Renilla luciferase, cherry-picked, counter-screen for Shn3 inhibitor project, dose response (AID 624133); type: functional
[13] = Fluorescence-based cell-based high throughput dose response assay for inhibitors of the interaction of nucleotide-binding oligomerization domain containing 2 (NOD2) and the receptor-interacting serine-threonine kinase 2 (RIPK2).; type: functional; details: Homo sapiens
[14] = activation of miR-122 Renilla sensor silencing – cell-based, Huh7 psiCHECK-miR122, Renilla luciferase, cherry-picked, dose response (AID 651956); type: functional;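 note: huh7 hepatoma cells stably carrying a psiCHECK-2 miR-122 sensor plasmid; renilla luciferase signal reporting endogenous miR-122 activity after 48 h compound exposure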
Paired box protein Pax-8 = Paired box protein Pax-8 (Homo sapiens, UniProt Q06710); assay: PAX8 transcriptional activity inhibition in RMG-I – RMG-I cells, luciferase, cherry-pick, dose response (AID 687027); type: functional, cell-based;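 note: luciferase reporter driven by Pax8 target thyroperoxidase promoter measured by SteadyGlo luminescence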
Paired box protein Pax-8, sequence (Q06710 whole entry): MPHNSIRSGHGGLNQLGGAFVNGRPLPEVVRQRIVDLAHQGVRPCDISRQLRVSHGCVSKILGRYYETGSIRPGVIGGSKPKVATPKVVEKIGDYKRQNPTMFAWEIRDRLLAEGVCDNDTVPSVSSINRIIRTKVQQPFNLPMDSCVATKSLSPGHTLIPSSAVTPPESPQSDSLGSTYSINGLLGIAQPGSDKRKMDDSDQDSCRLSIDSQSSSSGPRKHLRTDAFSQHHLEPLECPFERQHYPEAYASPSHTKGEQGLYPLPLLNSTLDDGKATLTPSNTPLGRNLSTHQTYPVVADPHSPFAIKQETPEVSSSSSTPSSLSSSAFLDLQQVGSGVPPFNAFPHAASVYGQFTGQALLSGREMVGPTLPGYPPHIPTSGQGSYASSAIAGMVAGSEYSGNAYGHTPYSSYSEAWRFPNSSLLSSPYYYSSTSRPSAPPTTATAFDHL

[15] = A549 cell cytotoxicity, dose response, cytotoxicity control, plate reader, cherry-pick, antagonist series (AID 743412); type: functional, cell-based
[16] = toxicity toward HepG2 liver cells – cell-based, plate reader, cherry-pick, antagonist series, cytotoxicity control, dose response (AID 743416); type: functional
[17] = blockers of bursicon-stimulated LGR2 cAMP reporter – cell-based, HEK293, CRE-luciferase reporter, cherry pick, set 2, dose response (AID 743343); type: functional;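 note: transfected cells were stimulated with diluted bursicon conditioned medium after compound addition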
[18] = general mammalian cell viability loss – activator set, cherry-pick, cytotoxicity control for miR-122 modulator project, dose response (AID 720690); type: functional, cell-based;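 note: HEK293T human cells scored for general mammalian cytotoxicity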
[19] = general cell-killing toxicity readout – plate reader, dry powder samples, cytotoxicity control for PAX8 inhibitor project, dose response (AID 743021); type: functional, cell-based
[20] = blockade of melanocortin 4 receptor signaling – cell-based, plate reader, cherry pick, counter-screen for LGR2 antagonist project, dose response (AID 743444); type: functional;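 note: transfected HEK 293 cells stimulated with alpha-MSH peptide; potency of inhibitors of the alpha-MSH evoked signal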
[21] = viability loss in HEK293 cells – cell-based, plate reader, cherry-picked samples, cytotoxicity control, dose response (AID 743446); type: functional
[22] = biological target: T1, Oxysterols receptor LXR-beta (Homo sapiens, UniProt P55055); type: functional, cell-based;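 note: Cell-based luminescence dose-response assay of agonist activity at LXR, run as a confirmatory counterscreen to a daf-12 agonist screen; HEK293 cells with Gal4-LXR fusion and GAL4-driven luciferase reporter; agonist potency from rising luciferase signal of a Gal4-LXR reporter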
T1 sequence (P55055 whole entry): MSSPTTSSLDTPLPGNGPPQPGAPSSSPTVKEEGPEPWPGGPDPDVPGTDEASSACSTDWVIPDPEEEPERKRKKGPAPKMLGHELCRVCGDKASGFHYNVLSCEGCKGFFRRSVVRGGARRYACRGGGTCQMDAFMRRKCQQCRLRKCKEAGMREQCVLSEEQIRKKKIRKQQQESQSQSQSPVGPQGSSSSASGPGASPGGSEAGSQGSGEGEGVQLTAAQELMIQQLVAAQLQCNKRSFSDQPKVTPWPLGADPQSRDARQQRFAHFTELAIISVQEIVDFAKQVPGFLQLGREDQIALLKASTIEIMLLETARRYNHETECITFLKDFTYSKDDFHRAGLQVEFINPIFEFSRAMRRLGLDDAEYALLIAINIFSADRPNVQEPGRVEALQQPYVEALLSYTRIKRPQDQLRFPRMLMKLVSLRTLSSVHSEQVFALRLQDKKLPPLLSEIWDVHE

fMet-Leu-Phe receptor = fMet-Leu-Phe receptor (Homo sapiens, UniProt P21462); assay: formyl peptide receptor binders – dose response (AID 519); type: functional
fMet-Leu-Phe receptor, sequence (P21462 whole entry): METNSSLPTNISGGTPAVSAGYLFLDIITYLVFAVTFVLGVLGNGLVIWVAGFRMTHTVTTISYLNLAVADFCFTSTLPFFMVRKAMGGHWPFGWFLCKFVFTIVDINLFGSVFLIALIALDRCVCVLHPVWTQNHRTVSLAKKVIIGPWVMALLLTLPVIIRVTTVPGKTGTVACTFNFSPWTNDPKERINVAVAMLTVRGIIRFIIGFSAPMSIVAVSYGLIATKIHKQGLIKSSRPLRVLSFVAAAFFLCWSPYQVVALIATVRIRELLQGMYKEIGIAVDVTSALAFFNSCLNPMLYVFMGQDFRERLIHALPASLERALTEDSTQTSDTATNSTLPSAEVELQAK

Exodeoxyribonuclease V = biological target: T2, Exodeoxyribonuclease V (Escherichia coli (strain K12), UniProt P04993+P07648+P08394); assay: RecBCD inhibition via phage-restricted bacterial growth – absorbance, V66 E. coli, mutant T4 phage, counter-screen for AddAB inhibitor project, dose response (AID 492957); type: functional, cell-based, Escherichia coli str. K-12 substr. MG1655
T2 sequence (P04993 whole entry): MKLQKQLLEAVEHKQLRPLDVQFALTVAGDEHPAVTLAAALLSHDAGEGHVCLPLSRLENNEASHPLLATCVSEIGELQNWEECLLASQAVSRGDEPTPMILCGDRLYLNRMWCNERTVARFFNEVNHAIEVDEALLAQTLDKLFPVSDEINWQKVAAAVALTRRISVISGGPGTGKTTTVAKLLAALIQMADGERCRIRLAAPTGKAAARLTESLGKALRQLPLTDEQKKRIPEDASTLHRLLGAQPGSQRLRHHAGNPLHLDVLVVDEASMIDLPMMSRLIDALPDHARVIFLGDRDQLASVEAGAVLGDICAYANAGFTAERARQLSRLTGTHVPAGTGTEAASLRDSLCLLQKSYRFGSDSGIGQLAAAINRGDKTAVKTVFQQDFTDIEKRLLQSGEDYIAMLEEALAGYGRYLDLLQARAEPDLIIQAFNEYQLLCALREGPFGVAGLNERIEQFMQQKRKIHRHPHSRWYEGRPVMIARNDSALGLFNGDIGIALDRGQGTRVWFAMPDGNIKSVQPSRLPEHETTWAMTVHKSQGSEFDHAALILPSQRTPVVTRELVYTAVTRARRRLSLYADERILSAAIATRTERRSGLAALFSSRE
T2 sequence (P07648 whole entry): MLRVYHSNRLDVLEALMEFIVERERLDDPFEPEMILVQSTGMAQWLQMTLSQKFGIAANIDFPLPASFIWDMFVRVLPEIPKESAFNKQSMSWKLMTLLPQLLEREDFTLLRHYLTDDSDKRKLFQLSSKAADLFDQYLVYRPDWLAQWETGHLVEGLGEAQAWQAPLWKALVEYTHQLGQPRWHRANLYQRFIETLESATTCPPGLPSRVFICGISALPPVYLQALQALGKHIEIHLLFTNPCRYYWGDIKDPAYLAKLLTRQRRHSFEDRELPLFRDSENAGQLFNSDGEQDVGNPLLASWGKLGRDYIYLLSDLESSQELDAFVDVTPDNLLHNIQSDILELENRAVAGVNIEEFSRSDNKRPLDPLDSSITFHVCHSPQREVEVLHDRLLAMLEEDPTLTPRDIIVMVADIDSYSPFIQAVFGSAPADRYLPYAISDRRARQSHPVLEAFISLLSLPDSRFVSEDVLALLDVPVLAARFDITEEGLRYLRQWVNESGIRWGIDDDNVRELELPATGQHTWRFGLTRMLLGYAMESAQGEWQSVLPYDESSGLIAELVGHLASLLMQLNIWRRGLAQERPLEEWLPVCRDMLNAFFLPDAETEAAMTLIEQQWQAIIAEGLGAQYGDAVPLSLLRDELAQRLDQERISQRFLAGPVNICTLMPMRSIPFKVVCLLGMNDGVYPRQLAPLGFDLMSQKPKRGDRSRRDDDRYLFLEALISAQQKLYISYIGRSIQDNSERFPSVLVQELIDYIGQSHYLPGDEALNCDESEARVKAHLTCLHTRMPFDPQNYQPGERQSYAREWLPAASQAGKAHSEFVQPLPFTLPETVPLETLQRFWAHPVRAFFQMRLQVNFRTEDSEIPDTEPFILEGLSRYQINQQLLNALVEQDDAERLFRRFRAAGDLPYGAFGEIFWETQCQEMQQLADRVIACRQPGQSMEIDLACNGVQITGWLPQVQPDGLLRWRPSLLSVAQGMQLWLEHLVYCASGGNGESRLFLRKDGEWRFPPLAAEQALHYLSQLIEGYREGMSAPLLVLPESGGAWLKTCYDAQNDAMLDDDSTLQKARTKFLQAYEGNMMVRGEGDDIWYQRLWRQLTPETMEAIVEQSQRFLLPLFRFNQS
T2 sequence (P08394 whole entry): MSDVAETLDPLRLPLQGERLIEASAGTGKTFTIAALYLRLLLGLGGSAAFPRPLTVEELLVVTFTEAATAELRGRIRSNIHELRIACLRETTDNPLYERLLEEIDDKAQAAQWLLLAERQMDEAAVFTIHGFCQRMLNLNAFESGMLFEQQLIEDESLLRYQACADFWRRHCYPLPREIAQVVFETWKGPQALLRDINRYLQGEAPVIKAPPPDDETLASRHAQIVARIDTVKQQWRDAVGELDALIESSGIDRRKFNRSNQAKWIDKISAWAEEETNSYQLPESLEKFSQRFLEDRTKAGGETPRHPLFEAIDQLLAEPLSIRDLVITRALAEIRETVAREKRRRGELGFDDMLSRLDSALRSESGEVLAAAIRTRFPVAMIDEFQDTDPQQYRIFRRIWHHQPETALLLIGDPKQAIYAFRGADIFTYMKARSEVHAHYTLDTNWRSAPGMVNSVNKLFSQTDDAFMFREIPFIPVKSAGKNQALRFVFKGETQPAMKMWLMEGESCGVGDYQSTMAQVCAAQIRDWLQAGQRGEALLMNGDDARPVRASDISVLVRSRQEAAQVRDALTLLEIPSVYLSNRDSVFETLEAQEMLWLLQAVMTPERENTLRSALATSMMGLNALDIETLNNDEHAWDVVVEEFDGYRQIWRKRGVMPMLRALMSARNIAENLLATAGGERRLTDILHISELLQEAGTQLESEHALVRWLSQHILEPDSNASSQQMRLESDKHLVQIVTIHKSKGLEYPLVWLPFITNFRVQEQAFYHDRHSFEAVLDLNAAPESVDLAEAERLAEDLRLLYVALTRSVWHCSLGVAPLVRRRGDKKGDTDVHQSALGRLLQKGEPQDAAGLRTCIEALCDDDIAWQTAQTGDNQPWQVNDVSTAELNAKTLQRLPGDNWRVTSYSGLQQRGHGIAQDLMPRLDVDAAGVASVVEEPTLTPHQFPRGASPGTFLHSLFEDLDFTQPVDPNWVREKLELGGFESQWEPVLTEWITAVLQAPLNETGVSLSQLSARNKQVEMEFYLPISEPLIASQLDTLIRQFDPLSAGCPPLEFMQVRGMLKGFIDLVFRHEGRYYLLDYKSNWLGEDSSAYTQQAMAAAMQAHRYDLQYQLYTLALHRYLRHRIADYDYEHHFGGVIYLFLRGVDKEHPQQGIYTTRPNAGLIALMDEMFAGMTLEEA

Beta-galactosidase = Beta-galactosidase (Escherichia coli, UniProt Q8VNN2); assay: detection-enzyme interference by beta-gal modulators – biochemical, E. coli enzyme, set 3, artefact control for CCR6 antagonist project, dose response (AID 504712); type: functional
Beta-galactosidase, sequence (Q8VNN2 whole entry): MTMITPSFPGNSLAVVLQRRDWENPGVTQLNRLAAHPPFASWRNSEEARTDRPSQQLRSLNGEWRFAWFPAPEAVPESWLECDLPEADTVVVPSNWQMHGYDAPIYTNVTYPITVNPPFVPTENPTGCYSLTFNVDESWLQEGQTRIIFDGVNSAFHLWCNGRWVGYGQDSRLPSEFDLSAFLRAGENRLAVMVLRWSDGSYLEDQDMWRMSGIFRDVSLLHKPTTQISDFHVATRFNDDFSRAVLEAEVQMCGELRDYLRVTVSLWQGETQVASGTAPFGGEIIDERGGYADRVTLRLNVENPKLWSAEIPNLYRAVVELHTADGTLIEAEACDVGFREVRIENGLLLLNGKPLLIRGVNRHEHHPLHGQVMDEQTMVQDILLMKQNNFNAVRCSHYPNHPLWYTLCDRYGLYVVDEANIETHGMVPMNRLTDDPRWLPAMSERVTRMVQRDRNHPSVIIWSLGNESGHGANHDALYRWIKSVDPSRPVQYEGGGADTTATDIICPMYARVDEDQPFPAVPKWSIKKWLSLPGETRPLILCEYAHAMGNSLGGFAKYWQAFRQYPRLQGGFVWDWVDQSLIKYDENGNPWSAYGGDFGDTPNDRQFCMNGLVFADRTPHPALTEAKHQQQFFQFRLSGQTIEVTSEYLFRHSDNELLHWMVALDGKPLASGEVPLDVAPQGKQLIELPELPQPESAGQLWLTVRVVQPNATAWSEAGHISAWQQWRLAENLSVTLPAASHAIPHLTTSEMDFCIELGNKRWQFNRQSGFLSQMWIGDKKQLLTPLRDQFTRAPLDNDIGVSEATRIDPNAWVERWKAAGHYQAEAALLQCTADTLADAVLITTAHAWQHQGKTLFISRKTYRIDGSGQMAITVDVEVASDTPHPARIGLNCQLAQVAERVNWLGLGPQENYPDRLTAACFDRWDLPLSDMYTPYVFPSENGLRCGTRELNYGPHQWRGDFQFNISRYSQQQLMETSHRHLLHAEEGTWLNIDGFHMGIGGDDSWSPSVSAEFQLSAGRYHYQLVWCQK

[23] = Counterscreen for AddAB inhibitors: absorbance-based bacterial cell-based high throughput dose response assay for inhibitors of bacterial viability. [Related pubchem assays (depositor defined):AID435030, AID449728, AID449731, AID488942, AID488955, AID488956]; type: functional
Caspase-6 = Caspase-6 (Homo sapiens, UniProt P55212); assay: inhibition of CASP6 peptide cleavage – biochemical, VEID-R110 fluorescence, cherry-pick, dose response (AID 720632)
Caspase-6, sequence (P55212 24-179 limits assumed): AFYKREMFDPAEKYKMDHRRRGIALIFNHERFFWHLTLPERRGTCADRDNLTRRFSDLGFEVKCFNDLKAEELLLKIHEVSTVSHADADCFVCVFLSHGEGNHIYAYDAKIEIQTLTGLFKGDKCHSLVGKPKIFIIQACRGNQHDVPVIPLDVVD
Caspase-6, sequence (P55212 194-293 limits assumed): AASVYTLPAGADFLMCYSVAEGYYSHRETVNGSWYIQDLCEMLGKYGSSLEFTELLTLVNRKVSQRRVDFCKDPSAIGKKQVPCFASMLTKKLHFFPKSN

[24] = reduced cellular PGC1a acetyl-lysine signal – cell-based, cherry-picked samples, dose response (AID 720514); type: functional;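 note: potency may reflect raised or lowered acetylation signal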

For Cc1ccc(S(=O)(=O)N[C@H]2C=C[C@@H](CC(=O)N3CCC(Cc4ccccc4)CC3)O[C@H]2CO)cc1, the AC50 (HEK293 [1]) was 14.2 µM (active) and the AC50 [2] was 14.2 µM (active).

For Cc1cccc(-n2ncc(Cl)c(Cl)c2=O)c1, the EC50 (BJ [3]) was 1.02 µM (active), the EC50 (BJ [4]) was > 150 µM (inconclusive) and the EC50 (BJ [5]) was 5.1 µM (inconclusive). For the same compound, the EC50 [6] was 5.17 µM (active), the AC50 [7] was 2.66 µM (active) and the AC50 (HEK293 [8]) was 3.08 µM (active). The EC50 (BJ [9]) was 0.556 µM (active), the AC50 [10] was 5.8 µM (active) and the AC50 [11] was 40.7 µM (active). For the same compound, the AC50 [12] was 12.4 µM (active), the IC50 [13] was 5.33 µM (active) and the AC50 [14] was 8.05 µM (active). For the same compound, the AC50 (Paired box protein Pax-8) was 5.11 µM (active), the AC50 [15] was 7.6 µM (active) and the AC50 [16] was 8.69 µM (active). The AC50 [17] was 20.4 µM (active), the AC50 [18] was 2.27 µM (active) and the AC50 [19] was 25.6 µM (active). The AC50 [20] was 27.5 µM (active) and the AC50 [21] was 7.36 µM (active).

With Cc1nn(-c2ccc(Br)cc2)c(=O)c2ccccc12 the EC50 [22] was > 67.6 µM (inactive) and the EC50 (cells) was > 67.6 µM (inactive).

With O=C(C1=C(O)C(=O)N(Cc2ccccc2)C1c1ccco1)c1ccco1 (stereo not given) the Ki (fMet-Leu-Phe receptor) was 12.4 µM (active).

For O=C(O)c1ccc(N/N=C/C=C/c2ccc([N+](=O)[O-])o2)cc1, the IC50 (Exodeoxyribonuclease V) was > 119 µM (inactive), the IC50 (Beta-galactosidase) was 33 µM (active) and the IC50 [23] was 55.5 µM (inactive). The AC50 (Caspase-6) was 3.34 µM (active).

For O=C(C(Br)=Cc1ccccc1)c1ccccc1, the AC50 [24] was 10.9 µM (active).
